The text below walks through data of US5763431A, “Method for regulating neuropeptide hormone secretion” (priority 1996, dated 1998).

A short description of test [1]: Oral contraceptive containing neuroactive steroid in premenopausal women (Example 3). The test is classed as in vivo, human. The note with it: progesterone containing oral contraceptive with neuroactive steroid, two years; expected. The text has this: An experiment is run with a study group of premenopausal women. Half of the group is placed on a progesterone containing oral contraceptive which also contains a neuroactive steroid such as allepregnanolone. The other half of the study group is given the same oral contraceptive but without neuroactive steroid. The study is run for two years and the group is regularly evaluated for its cardiovascular status.

Test [2] can be described thus: Treatment and prevention of hypertension in borderline hypertensive patients (Example 2). The test is classed as in vivo, human. The note with it: daily high physiological dosage, after one year, versus placebo; expected. An excerpt: An experiment is run with study group of patients who are borderline hypertensive. Half of the group is given daily a high physiological dosage of allepregnanolone. The remaining patients are placed on placebo.

Test [3] has as its system Posterior Pituitary GABAA Receptor. Nature of the test: Desensitization of the GABAA receptor during sustained GABA application, whole-terminal recordings. The test is classed as cell-based. More on the design: Time constant of desensitization, GABA with steroid: dose or concentration left out as unconfirmed. The note with it: for Desensitization Time-Constant Ratio: (GABA+steroid)/GABA, geometric mean, allopregnanolone 100 nM, estradiol-17β 100 nM; for Time constant of desensitization, GABA with steroid: sustained application of GABA in the presence of steroid, same terminals as controls. The text has this: FIGS. 3A and 3B are whole terminal recordings showing the GABA desensitizing effect of certain neuroactive steroids on the GABAA receptor. […] 3B illustrates the effect of allopregnanolone.
Sustained application of GABA desensitized the receptor with a time constant of 9.5±0.5 sec (n=3). […] Similar results were obtained with allopregnanolone; the average time constant for desensitization was 9.1±1.8 sec with GABA alone and 10.2±1.7 sec (n=3) with GABA and allopregnanolone.
(§1) Measurements were made in nerve terminals for responses to GABA alone or GABA+steroid. The ratios were computed as (GABA+steroid)/GABA, and the geometric means were computed for the indicated number of ratios. The * indicates statistical significance at the level of P<0.05. […] The single-channel activity was determined from Po using all-points histograms such as those shown in FIGS. 4B and 4D, as described in METHODS. The GABA concentration was […] for the first two columns and 1 mM for the last column.

Test [4] has the same test system. Nature of the test: GABA-gated Cl- single-channel currents in outside-out patches excised from posterior pituitary nerve terminals. The test is classed as cell-based. The procedure: as §1
For test [5] the test system is unchanged. Nature of the test: Whole-terminal patch clamp recording of GABA responses in posterior pituitary nerve terminals. The note with it: for Effect on GABA-activated Cl- current / GABAA receptor responses of nerve terminals (in words): posterior pituitary nerve terminals. The test is classed as cell-based. How it is done: as §1
On the technique in general: Patch clamp records ionic current or voltage across a cell membrane.

Where “and” joins values, the source holds several entries; their conditions need not be identical. Equal entries are not always repeated. Entries after “also recorded” stand apart in the source; their conditions may differ.

As for `CC(=O)[C@H]1CC[C@H]2[C@@H]3CC[C@H]4C[C@H](O)CC[C@]4(C)[C@H]3CC[C@]12C` [Allopregnanolone, 3α-hydroxy-5α-pregnan-20-one], in test [1], the “Cardiovascular status compared to control” value is given as “significantly better cardiovascular status compared to control”. Besides, the “Blood pressure relative to control” value in test [2] was “significantly lower blood pressure relative to control”. In test [3], the “Desensitization Time-Constant Ratio” value came out at 1.14 and the “Time constant of desensitization, GABA with steroid” value (shortened to “Time constant … with steroid”) turned out to be 10.2 ± 1.7 s. Moreover, the “Effect on GABA-activated single-channel activity (in words)” value in test [4] is listed as “more channel activity than GABA alone; also recorded: clearly increased”. The “Effect on GABA-activated Cl- current / GABAA receptor responses of nerve terminals (in words)” value in test [5] is listed as “potentiated; also recorded: strongly enhanced”.
Turning to `CC(=O)[C@H]1CC[C@H]2[C@@H]3CC[C@H]4C[C@H](O)CC[C@]4(C)[C@H]3C(=O)C[C@]12C` [Alphaxalone, alphaxalone], the “Time constant … with steroid” value in test [3] stood at 8.9 ± 0.5 s.
As to `C[C@]12CC[C@@H]3c4ccc(O)cc4CC[C@H]3[C@@H]1CC[C@@H]2O` [Estradiol-17β], in test [3], the “Desensitization Time-Constant Ratio” value was found to be 0.90 and the “Time constant … with steroid” value was 7.9 ± 1.9 s. Further, the “Effect on rate of desensitization (in words)” value in test [3] (sustained GABA application) was “failed to alter the rate of desensitization”. Further, the “Effect on GABA-activated single-channel activity (in words)” value in test [4] is “went down slightly”. Further, in test [5] (estradiol-17β 100 nM, n=6), the “GABA responses as % of controls” value was 78%. Further, the “Effect on GABA-activated Cl- current / GABAA receptor responses of nerve terminals (in words)” value in test [5] is listed as “weak inhibitory effect”.
Take `NCCCC(=O)O` [GABA]: the “Time constant of desensitization, GABA alone” value in test [3] (sustained application of GABA alone (controls of the alphaxalone, allopregnanolone and estradiol-17β experiments, in this order)) was 9.5 ± 0.5 s and 9.1 ± 1.8 s and 9.2 ± 0.2 s.
